Here are results for one compound from patent US20060122214A1, “Agent for prophylaxis and treatment of angiostenosis” (priority 1999, published 2006).

The subject of experiment [1] is vascular smooth muscle cells (VSMC) derived from WKY rat aortic tunica media. Nature of the experiment: Migration ability of cultured VSMC (96 well chemotaxis chamber, A595). Format: cell-based. Conditions: for A595 (VSMC migrated to the lower surface of the membrane): Y-27632 10 μM, cultured for 18 hours. Here is the method: (2) Effect on Migration Ability of Cultured VSMC (Method) A serum free medium or a medium containing 10% serum, which contained the test drug (Y-27632, 10 μM), was placed in a 96 well chemotaxis lower chamber, and a serum free medium containing the test drug was placed in 96 well chemotaxis upper and lower chambers where VSMC were suspended, and then cultured for 18 hours. The VSMC migrated to the lower surface of the membrane were stained with QuickDiff (International Reagents Corporation) and absorbance was measured at A595.

For experiment [2] the test system is unchanged. Nature of the experiment: Proliferation ability of VSMC ([3H] thymidine uptake method). Conditions: for [3H] thymidine uptake: 24 hours of culture, n = 5. Format: cell-based. How it is done:
(1) Effect on Proliferation Ability of Vascular Smooth Muscle Cells (VSMC) Derived from WKY Rat Aortic Tunica Media (Method) VSMC were separated and cultured according to the method of Yamamoto et al. (Yamamoto H, et al., Br. J. Exp. Pathol. 64; 156-165, 1983). The proliferation ability of VSMC was determined according to the method of Berk et al. [[^3H] thymidine uptake method; Berk B C, et al., J. Cell Physiol. 137; 391-401, 1988]. A DMEM medium containing 10% serum was changed every two days and the cells were cultured on a dish. The cells after 5 to 10 passages were subjected to the experiment. VSMC were cultured in a medium containing 1.0% serum for 24 hours and in a serum free medium for 24 hours to synchronize the cell cycle. The VSMC were transferred to a medium containing 10% fetal calf serum or a serum free medium and [^3H] thymidine (2 μCi/ml) was added to each medium to label VSMC. The test drug (Y-27632) (10 μM or 30 μM) waw simultaneously added, and after 24 hours of culture, VSMC were recovered, admixed with a scintillator (ACSII, Amersham) and subjected to the measurement of radioactivity by a liquid scintillation counter (LS6500, Beckman), based on which the [^3H] thymidine uptake was measured.

Experiment [3] concerns left carotid artery intima of WKY rats. Kind of experiment: Proliferation of regenerated intima after balloon injury of carotid artery in rat. Format: in vivo. Conditions: 30 mg/kg intraperitoneal, consecutively from 3 days before operation, 14 days after the operation, control 1.88±0.24, sham 0.03±0.01. How it is done: Effect on Proliferation of Regenerated Intima after Balloon Injury of Carotid Artery in Rat 2F Fogarty catheter was inserted from the outer left carotid artery of 8-week-old male WKY rats under anesthesia and inflated in the left common carotid artery, whereby intima was detached in the entire length. Physiological saline was consecutively administered to a control group, and the test drug (Y-27632) (30 mg/kg) was consecutively administered to a test group, wherein both groups underwent intraperitoneal administration starting from 3 days before operation. The rats free of the intima detachment treatment were used as a sham group. At 14 days after the operation, left carotid artery was subjected to perfusion fixation and removed thereafter, stained with HE, and a new intima thickness/medial thickness (I/M) ratio was measured.

In the case of `C[C@@H](N)[C@H]1CC[C@H](C(=O)Nc2ccncc2)CC1` [Compound Y-27632, (+)-trans-4-(1-aminoethyl)-1-(4-pyridylcarbamoyl)cyclohexane 2HCl.1H2O], the “A595 (VSMC migrated to the lower surface of the membrane)” value in experiment [1] (+10% FCS) was determined as 0.036 ± 0.010 arbitrary unit/well; in experiment [1] (FCS-Free) it was 0.007 ± 0.003 arbitrary unit/well. In addition, the “effect on migration ability of VSMC (in words)” value in experiment [1] (both medium containing 10% serum and serum free medium) is given as “suppressed the migration ability”. The “[3H] thymidine uptake” value in experiment [2] (+10% FCS, Y-27632 10 μM) was 360153 ± 10425 dpm/dish; in experiment [2] (+10% FCS, Y-27632 30 μM), 366089 ± 12882 dpm/dish; in experiment [2] (FCS-free medium, Y-27632 10 μM), 150381 ± 6515 dpm/dish; in experiment [2] (FCS-free medium, Y-27632 30 μM), 127767 ± 2482 dpm/dish. Moreover, the “effect on [3H] thymidine uptake (in words)” value in experiment [2] (serum stimulation group and control group (serum free)) was “did not affect”. Also, the “new intima thickness/medial thickness (I/M) ratio” value in experiment [3] came to 0.46±0.22.
